Laboratory results published in patent publication US20240277767A1, “METHODS AND USES” (PROLEUKOCYTE AB, priority 2021, published 2024).
“Also recorded” adds a separate entry of the source.

How the values were obtained:
Assay type in all cases: cell-based, human
[1] = tested on: CD19 directed CAR T cells; assay: CD19-directed CAR T-cell lysis of RAJI and N6/ADR tumour cells after H2O2; details: H2O2 at different concentrations, E:T 15:1, vs control CAR T cells
Method: Melanoma patient derived TIL and CD19 directed CAR T cells were generated as previously described (Magalhaes et al., 2018; Lövgren et al., 2020).
For Nrf2 inhibition, NK cells were treated with 50 μM ML-385 (Sigma-Aldrich) in parallel. For H2O2 treatment, lymphocyte cells were washed and resuspended to 1×10^6 cells/mL in medium and exposed to indicated H2O2 (Sigma-Aldrich) concentration for 1 h at 37° C. Cells were washed with medium and then used for further experiments. For monocyte experiments, autologous NK cell-monocytes or TIL-monocytes were used. NK cells/TIL were isolated and pre-treated with 0.5 μg/mL AUF, as described above, and co-cultured with unstimulated at the ratio, 1:2 M:NK, or stimulated monocytes at the ratio, 1:1 M:NK, if not indicated otherwise. Stimulated monocytes were activated with 100 ng/ml PMA for 1 min, washed and added at indicated ratio, the number of NK cell/TIL was kept constant. As control, H2O2 was used at indicated concentration. […]
For cytotoxic assay, a standard 4 h [Cr^51]-release assay was used. […] The supernatant was collected onto LUMA plates (Perkin-Elmer) and radioactivity/tumour cell lysis was detected by MicroBeta2 (Perkin Elmer). Target cell killing measured by % specific lysis and calculated using the formula: ((experimental release-spontaneous release)/(maximum release-spontaneous release))*100.

KADA TIL = assay: Quantification of CD4+ T cells and Tregs in AUF pre-treated KADA TIL (flow cytometry); details: AUF 0.5 μg/mL
Method: Tregs were defined as CD3+CD4+ FoxP3+. Directly after the treatment, TIL were stimulated for six hours with PMA/Ionomycin or autologous tumor cells and then stained for intracellular cytokines IL-10 (C) and TGFβ (D).
(§1) Lymphocytes were pre-treated for 18 h with Auranofin (AUF, with the concentration 1 μg/mL for NK cells and 0.5 μg/mL for TIL. As AUF was reconstituted in DMSO, control NK cells were pre-treated with DMSO with an equivalent volume to the highest compound concentration. For N-acetylcysteine (NAC, Invitrogen) treatment, DMSO pre-treated cells were incubated for 1 h with 5 or 10 mM NAC prior to H2O2 treatment. For H2O2 treatment, lymphocytes were washed and resuspended to 1×10^6 cells/mL in RPMI containing the indicated H2O2 (Sigma-Aldrich) concentration for 1 h at 37° C. 5% CO2. Cells were washed with medium and then used for further experiments.
All antibodies (see Table 1 in Example 1) and FACS reagents were used according to manufacturers' recommendation, if not stated otherwise. Cells were stained with LIVE/DEAD™ Fixable Aqua Dead Cell Stain Kit (Invitrogen) and then stained with the respective antibodies for 20 min at 4 °C in PBS 1% FBS. Intracellular staining was performed using Fixation/Permeabilization Kit (BD Biosciences) following the manufacturer's instructions. […]

NK cells [2] = assay: [Cr51]-release assay: lysis of tumour target cells by pre-treated NK cells after H2O2 exposure
Description: Peripheral blood samples (anonymized by-products of blood donations from healthy adult donors) were purchased from Karolinska University Hospital Blood Bank. Peripheral blood mononuclear cells (PBMC) were isolated from healthy donor buffy coats using density centrifugation with Ficoll® Paque Plus (GE Healthcare). NK cells and CD14^+ monocytes were isolated from PBMCs using NK cell isolation kit or CD14^+ microbeads, respectively (both Miltenyi Biotec), following the manufacturer's instructions. For NK cell expansion, a EBV-LCL feeder cell line was used, irradiated at 100 gy and then co-cultured with NK cells, at the ratio 10:1 LCL:NK, in X-Vivo 20 (Lonza) supplemented with 10% human AB serum and 1000 U/mL IL-2 (Proleukin). From day 6 or 10, NK cells were kept at 0.5×10^6 cells/mL or 1×10^6/mL, respectively. Purity of expanded NK cell was assessed at day 10 by flow cytometry, see below.
Lymphocytes were pre-treated for 18 h with Auranofin (AUF, with the concentration 1 μg/mL for NK cells and 0.5 μg/mL for TIL, if not indicated differently), DL-Sulforaphane (SUL) or Dimethyl Fumarate (DMF) (all Sigma-Aldrich) at indicated concentrations.
For Nrf2 inhibition, NK cells were treated with 50 μM ML-385 (Sigma-Aldrich) in parallel. For H2O2 treatment, lymphocyte cells were washed and resuspended to 1×10^6 cells/mL in medium and exposed to indicated H2O2 (Sigma-Aldrich) concentration for 1 h at 37° C. Cells were washed with medium and then used for further experiments. For monocyte experiments, autologous NK cell-monocytes or TIL-monocytes were used. NK cells/TIL were isolated and pre-treated with 0.5 μg/mL AUF, as described above, and co-cultured with unstimulated at the ratio, 1:2 M:NK, or stimulated monocytes at the ratio, 1:1 M:NK, if not indicated otherwise. Stimulated monocytes were activated with 100 ng/ml PMA for 1 min, washed and added at indicated ratio, the number of NK cell/TIL was kept constant. As control, H2O2 was used at indicated concentration. Cells were co-cultured for 2 h and then effector cells were stained for intracellular ROS (see flow cytometry) or used as effector cells in Cr^51 release assay (E:T ratio 10:1).
(§2) For cytotoxic assay, a standard 4 h [Cr^51]-release assay was used. Briefly, tumour cells were harvested and labeled with 51Cr (PerkinElmer) and used as target cells. Effector cells, NK cells and T cells, were co-cultured in 96-well V-bottom plate with indicated tumour cells at the stated effector target ratio (E:T). The supernatant was collected onto LUMA plates (Perkin-Elmer) and radioactivity/tumour cell lysis was detected by MicroBeta2 (Perkin Elmer). Target cell killing measured by % specific lysis and calculated using the formula: ((experimental release-spontaneous release)/(maximum release-spontaneous release))*100.
as §1

NK cells [3] = assay: ADCC: NK cells with RAJI cells coated with Rituximab or Ofatumumab
Method: Lymphocytes were isolated and pre-treated when indicated, with compound and H2O2, as described above. For degranulation/measuring CD107a expression, NK cells were co-cultured with K562 tumour cells at an effector target ratio 1:1 in the presence of anti-CD107a in U-bottom plates. After 2 h, GolgiStop™ and GolgiPlug™ (BD Bioscience) were added and cells were harvested after an additional 4 h co-culture and stained for CD56 and CD3, as described above. For positive control, 25 ng/ml PMA (Sigma Aldrich) and 500 ng/mL Ionomycin (Sigma Aldrich) were added.
as §2
For analyzing ADCC, NK cells were cultured with RAJI cells and Rituximab (0.5 μg/mL, MabThera, Roche) or Ofatumumab (0.05 μg/mL, Arzerra, Novartis).

[4] = upon addition of H2O2, vs control NK cells

CC(=O)OC[C@H]1O[C@@H]([S-])[C@H](OC(C)=O)[C@@H](OC(C)=O)[C@@H]1OC(C)=O.CCP(CC)CC.[Au+] [AUF, Auranofin]
Killing of CD19+ target cells by CD19 directed CAR T cells [1]: significantly increased killing
Killing of CD19+ target cells by CD19 directed CAR T cells ([1]; listed as auranofin): improved tumour killing
Frequency of CD4+ T cells after AUF pre-treatment (KADA TIL): did not observe any increase
Induction of regulatory T cells (CD3+CD4+FoxP3+) (KADA TIL; 0 h or 72 h post pre-treatment): do not induce regulatory T cells; also recorded: no induction of regulatory T cells could be detected
Lysis of K562 target cells by pre-treated NK cells after H2O2 exposure (NK cells [2]; 18 h pre-treatment, H2O2 1 h up to 250 μM, E:T 9:1, vs control NK cells): counteracted; also recorded: strong protective effect against ROS
Effector functions of NK cells (K562 lysis) vs controls (NK cells [2]; 72 h after AUF removal, E:T 3:1): no differences
Killing of KASUMI-1 cells by pre-treated NK cells (NK cells [2]; AML cell line KASUMI-1, H2O2, E:T 9:1): significantly increased killing
Killing of THP-1 cells by pre-treated NK cells (NK cells [2]; AML cell line THP-1, H2O2, E:T 9:1): significantly increased killing
Time after start of pre-treatment with most pronounced protection of functional cytotoxicity capacity (NK cells [2]; NK cells, K562 lysis, H2O2, E:T 9:1): around 18 h
Lysis of K562 by AUF pre-treated NK cells despite addition of ML385 (NK cells [2]; compared to untreated controls): lysis was increased
Suppressive effect of H2O2 on lymphocyte function (killing, degranulation, IFNγ) (NK cells [2]; expanded NK cells and patient derived TIL, pre-treatment): counteracts the suppressive effect of H2O2 on lymphocyte function
Duration of improved NK cell and TIL tolerance towards oxidative stress (NK cells [2]; post pre-treatment): up to two to three days
Dependence of the protective effect on Nrf2 activation (NK cells [2]; qPCR of Nrf2 target genes and K562 lysis with/without Nrf2 inhibitor ML385): dependent on Nrf2 activation
Effector functions of NK cells (K562 lysis) (NK cells [2]; up to 48 h after AUF removal, E:T 3:1): significantly improved effector functions
Effector function of NK cells and TIL after H2O2 treatment (NK cells [2]; up to 72 h after compound removal): increased effector function
Ability of NK cells to degranulate in response to anti-CD20 coated RAJI cells (NK cells [3]; [4]): significant increase
Ability of NK cells to lyse anti-CD20 coated RAJI cells (NK cells [3]; [4]): significant increase
Capacity of NK cells to recognize anti-CD20 coated RAJI cells (NK cells [3]; without the presence of ROS): increased capacity to recognize the anti-CD20 coated RAJI cells
